Experimental data from patent publication US4618669A, “S-(carbamoyl-phenylselenyl) derivatives of glutathione and of aminomercaptocarboxylic acids” (A. Nattermann & Cie GmbH, priority 1984, dated 1986).

Assays:
[1] = Glutathione-peroxidase-like activity, reaction rates by the method of A. Wendel; type: biochemical; details: relative to S-(2-phenylcarbamoyl-phenylselenyl) glutathione, taken as 100%; tert-butylhydroperoxide; in vitro
Protocol: The measuring of the glutathione peroxidase-like activity is carried out by the method of A. Wendel (A. Wendel, Methods in Enzymology, vol. 77, 325-333 (1981)). In this experiment, the reaction of the co-substrate nicotine […]-dinucleotide-phosphate is measured. The reducing agent in this case is not glutathione, but the […] containing aminoacid which has been used for the synthesis of the respective compounds. […] In in vitro-experiments, the catalysis of the peroxidase destruction has been examined. It was found, that the compounds of the present invention can replace the glutathioneperoxidase. [drawing 5] The reaction rates were measured by the method of A. Wendel (A. Wendel, Methods in Enzymology, vol. 77, pages 325-333 (1981)).

[2] = as above; type: biochemical; details: 1 millimolar concentration of glutathione with tert-butylhydroperoxide

Structure (SMILES)	catalytic activity (%) [1] [%]	reaction rate [2]
N[C@@H](CS[Se]c1ccccc1C(=O)NCc1ccccc1)C(=O)O [S-(2-Benzylcarbamoyl-phenylselenyl)-L-cysteine]	56	
N[C@@H](CS[Se]c1ccccc1C(=O)Nc1ccccc1)C(=O)O [S-(2-Phenylcarbamoyl-phenylselenyl)-L-cysteine]	210	
N[C@@H](CCC(=O)N[C@@H](CS[Se]c1ccccc1C(=O)Nc1ccccc1)C(=O)NCC(=O)O)C(=O)O [S-(2-Phenylcarbamoyl-phenylselenyl)-L-glutathione]	100	1,17×10^6 units per mol
CC(=O)N[C@@H](CS[Se]c1ccccc1C(=O)Nc1ccccc1)C(=O)O [S-(2-Phenylcarbamoyl-phenylselenyl)-N-acetyl-L-cysteine]	40	
COc1cccc(C(=O)Nc2ccccc2)c1[Se]SC[C@H](N)C(=O)O [S-(2-phenylcarbamoyl-6-methoxy-phenylselenyl)-L-cysteine]	440	
CC(C)(S[Se]c1ccccc1C(=O)Nc1ccccc1)[C@@H](N)C(=O)O [S-(2-phenylcarbamoyl-phenylselenyl)-D-penicillamine]	25	
COc1ccccc1NC(=O)c1ccccc1[Se]SCC(NC(=O)CCC(N)C(=O)O)C(=O)NCC(=O)O [S--[2-(2-methoxyphenylcarbamoyl)-phenylselenyl]-L--glutathione]	37	
N[C@@H](CCC(=O)N[C@@H](CS[Se]c1ccccc1C(=O)Nc1ccc(Cl)c(Cl)c1)C(=O)NCC(=O)O)C(=O)O [S-[2-(3,4-Dichlorophenylcarbamoyl)-phenylselenyl]-L-glutathione]	21	
CC(=O)N[C@@H](CS[Se]c1ccccc1C(=O)Nc1ccc(F)cc1)C(=O)O [S-[2-(4-fluorophenylcarbamoyl)-phenylselenyl]-N-acetyl-L-cysteine]	61	
NC(CCC(=O)NC(CS[Se]c1ccccc1C(=O)Nc1ccc([N+](=O)[O-])cc1)C(=O)NCC(=O)O)C(=O)O [S-[2-(4-nitrophenylcarbamoyl)-phenylselenyl]-L-glutathione]	121	
NC(CCC(=O)NC(CS[Se]c1ccccc1C(=O)Nc1ccc(C(F)(F)F)cc1)C(=O)NCC(=O)O)C(=O)O [S-[2-(4-trifluormethylphenylcarbamoyl)-phenylselenyl]-L-glutathione]	49	

Second part, led by results:

catalytic activity (%) [1] [%]	Structure (SMILES)	reaction rate [2]
92	NC(CCC(=O)NC(CS[Se]c1cc(F)ccc1C(=O)Nc1ccccc1)C(=O)NCC(=O)O)C(=O)O [S-(2-Phenylcarbamoyl-5-fluoro-phenylselenyl)-L-glutathione]	
99	NC(CCC(=O)NC(CS[Se]c1cc(Cl)ccc1C(=O)Nc1ccccc1)C(=O)NCC(=O)O)C(=O)O [S-(2-phenylcarbamoyl-5-chlor-phenylselenyl)-L-glutathione]	
63	COc1ccc(C(=O)Nc2ccccc2)c([Se]SCC(NC(=O)CCC(N)C(=O)O)C(=O)NCC(=O)O)c1 [S-(2-phenylcarbamoyl-5-methoxy-phenylselenyl)-L-glutathione]	
225	COc1cccc(C(=O)Nc2ccccc2)c1[Se]SCC(NC(=O)CCC(N)C(=O)O)C(=O)NCC(=O)O [S-(2-phenylcarbamoyl-6-methoxy-phenylselenyl)-L-glutathione]	
39	NC(CCC(=O)NC(CS[Se]c1ccccc1C(=O)Nc1ccccc1Cl)C(=O)NCC(=O)O)C(=O)O [S-[2-(2-chlorphenylcarbamoyl)-phenylselenyl]-L-glutathione]	
113	NC(CCC(=O)NC(CS[Se]c1ccccc1C(=O)Nc1cccc(F)c1)C(=O)NCC(=O)O)C(=O)O [S-[2-(3-fluorophenylcarbamoyl)-phenylselenyl]-L-glutathione]	
116	NC(CCC(=O)NC(CS[Se]c1ccccc1C(=O)Nc1ccc(Cl)cc1)C(=O)NCC(=O)O)C(=O)O [S-[2-(4-Chlorophenylcarbamoyl)-phenylselenyl]-L-glutathione]	
124	COc1ccc(NC(=O)c2ccccc2[Se]SCC(NC(=O)CCC(N)C(=O)O)C(=O)NCC(=O)O)cc1 [S-[2-(4-Methoxyphenylcarbamoyl)-phenylselenyl]-L-glutathione]	
